Reference: article PMC8429728, “TNK1 is a ubiquitin-binding and 14-3-3-regulated kinase that can be targeted to block tumor growth” (Nature Communications, 2021)
Where two headings read alike, the source gives them in different places.

Legend:
Assay in all cases: biochemical
Set-up in all cases: Reaction Biology 371-kinase panel at Km ATP, per cent enzyme activity relative to DMSO, single dose in duplicate
Settings in all cases: duplicate measurements, Km ATP
FGFR3 = FGFR3 (Homo sapiens, UniProt P22607)
How it was run: (§1)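 Compound screened at 300 nM in vitro across a 371-kinase panel. Enzyme activity expressed as % of DMSO controls. IC50 values came from sigmoidal variable-slope dose-response fits with the bottom fixed at 0.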

LCK = LCK (Homo sapiens, UniProt P06239)
How it was run: as §1

NEK1 = NEK1 (Homo sapiens, UniProt Q96PY6)
How it was run: as §1

TXK = TXK (Homo sapiens, UniProt P42681)
How it was run: as §1

ALK4/ACVR1B = ALK4/ACVR1B (Homo sapiens, UniProt P36896)
How it was run: as §1

CAMK1d = CAMK1d (Homo sapiens, UniProt Q8IU85)
How it was run: as §1

TRKA = target: T1, TRKA (Homo sapiens, UniProt P04629)
T1 construct: gene NTRK1
How it was run: as §1

CAMK2a = CAMK2a (Homo sapiens, UniProt Q9UQM7)
How it was run: as §1

CDK5/p35 = target: T2, CDK5/p35 (Homo sapiens, UniProt Q00535)
T2 construct: p35
How it was run: as §1

DDR1 = DDR1 (Homo sapiens, UniProt Q08345)
How it was run: as §1

DCAMKL2 = target: T3, DCAMKL2 (Homo sapiens, UniProt Q8N568)
T3 construct: gene DCLK2
How it was run: as §1

TLK1 = TLK1 (Homo sapiens, UniProt Q9UKI8)
How it was run: as §1

CDK6/cyclin D3 = CDK6/cyclin D3 (Homo sapiens, UniProt Q00534)
How it was run: as §1

Aurora A = target: T4, Aurora A (Homo sapiens, UniProt O14965)
T4 construct: gene AURKA
T4 sequence (O14965 1-403): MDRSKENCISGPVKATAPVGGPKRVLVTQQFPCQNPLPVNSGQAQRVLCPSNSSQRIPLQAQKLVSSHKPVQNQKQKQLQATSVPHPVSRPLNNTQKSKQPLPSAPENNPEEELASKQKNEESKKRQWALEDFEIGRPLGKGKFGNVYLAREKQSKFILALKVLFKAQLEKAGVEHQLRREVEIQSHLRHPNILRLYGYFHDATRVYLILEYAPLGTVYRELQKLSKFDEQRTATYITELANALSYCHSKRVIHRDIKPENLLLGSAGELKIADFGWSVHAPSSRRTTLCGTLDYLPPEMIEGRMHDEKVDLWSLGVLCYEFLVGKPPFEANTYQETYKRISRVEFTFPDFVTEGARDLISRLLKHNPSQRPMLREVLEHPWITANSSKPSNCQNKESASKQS
How it was run: as §1

TRKB = target: T5, TRKB (Homo sapiens, UniProt Q16620)
T5 construct: gene NTRK2
How it was run: as §1

MINK/MINK1 = MINK/MINK1 (Homo sapiens, UniProt Q8N4C8)
How it was run: as §1

DYRK3 = DYRK3 (Homo sapiens, UniProt O43781)
How it was run: as §1

[1] = read-out: % Enzyme Activity (relative to DMSO controls) / TP-0005801 (0.3µM) / Data 1
[2] = read-out: % Enzyme Activity (relative to DMSO controls) / TP-0005801 (0.3µM) / Data 2

Chain of CAMK2a (Q9UQM7 whole entry): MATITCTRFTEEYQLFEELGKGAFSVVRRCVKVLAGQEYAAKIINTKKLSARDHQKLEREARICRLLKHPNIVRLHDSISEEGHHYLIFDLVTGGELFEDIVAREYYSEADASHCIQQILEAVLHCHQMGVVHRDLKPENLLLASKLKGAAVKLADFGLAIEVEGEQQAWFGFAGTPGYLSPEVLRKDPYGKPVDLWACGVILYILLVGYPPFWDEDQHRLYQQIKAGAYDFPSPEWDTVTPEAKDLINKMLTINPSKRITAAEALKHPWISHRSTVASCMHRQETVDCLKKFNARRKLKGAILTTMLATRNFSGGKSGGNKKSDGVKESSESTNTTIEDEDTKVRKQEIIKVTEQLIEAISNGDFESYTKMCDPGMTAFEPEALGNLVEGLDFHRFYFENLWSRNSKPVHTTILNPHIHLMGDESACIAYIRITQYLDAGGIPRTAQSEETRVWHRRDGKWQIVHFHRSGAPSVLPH
Chain of CAMK1d (Q8IU85 whole entry): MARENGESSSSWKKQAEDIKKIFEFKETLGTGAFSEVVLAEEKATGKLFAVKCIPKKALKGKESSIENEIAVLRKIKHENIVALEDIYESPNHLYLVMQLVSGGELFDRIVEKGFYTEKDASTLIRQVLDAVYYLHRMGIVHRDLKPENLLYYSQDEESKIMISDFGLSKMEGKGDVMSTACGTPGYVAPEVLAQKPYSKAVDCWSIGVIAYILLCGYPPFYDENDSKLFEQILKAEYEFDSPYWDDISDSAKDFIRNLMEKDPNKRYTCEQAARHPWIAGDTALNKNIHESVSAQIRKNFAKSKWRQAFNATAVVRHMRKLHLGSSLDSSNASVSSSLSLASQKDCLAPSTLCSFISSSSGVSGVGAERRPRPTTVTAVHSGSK
Chain of TLK1 (Q9UKI8 whole entry): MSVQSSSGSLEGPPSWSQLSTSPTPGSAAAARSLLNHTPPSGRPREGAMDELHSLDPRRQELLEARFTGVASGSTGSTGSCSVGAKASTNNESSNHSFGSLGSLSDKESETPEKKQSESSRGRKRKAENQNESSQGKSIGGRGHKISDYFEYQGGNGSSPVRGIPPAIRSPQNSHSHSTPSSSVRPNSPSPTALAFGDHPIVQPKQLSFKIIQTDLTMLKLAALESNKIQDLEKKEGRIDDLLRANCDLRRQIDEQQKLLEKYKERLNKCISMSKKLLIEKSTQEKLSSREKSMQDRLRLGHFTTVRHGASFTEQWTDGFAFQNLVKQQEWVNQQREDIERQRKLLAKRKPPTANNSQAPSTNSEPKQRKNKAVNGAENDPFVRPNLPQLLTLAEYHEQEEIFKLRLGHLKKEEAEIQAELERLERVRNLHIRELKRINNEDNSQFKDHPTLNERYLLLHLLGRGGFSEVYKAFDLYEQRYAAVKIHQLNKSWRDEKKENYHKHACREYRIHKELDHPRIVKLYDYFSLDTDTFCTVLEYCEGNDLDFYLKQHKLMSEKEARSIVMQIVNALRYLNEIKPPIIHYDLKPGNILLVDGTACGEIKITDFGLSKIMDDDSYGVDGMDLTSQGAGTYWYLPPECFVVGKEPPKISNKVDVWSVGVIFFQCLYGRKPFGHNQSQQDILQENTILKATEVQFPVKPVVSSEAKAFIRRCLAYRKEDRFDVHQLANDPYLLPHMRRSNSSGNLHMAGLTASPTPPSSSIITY
Chain of ALK4/ACVR1B (P36896 whole entry): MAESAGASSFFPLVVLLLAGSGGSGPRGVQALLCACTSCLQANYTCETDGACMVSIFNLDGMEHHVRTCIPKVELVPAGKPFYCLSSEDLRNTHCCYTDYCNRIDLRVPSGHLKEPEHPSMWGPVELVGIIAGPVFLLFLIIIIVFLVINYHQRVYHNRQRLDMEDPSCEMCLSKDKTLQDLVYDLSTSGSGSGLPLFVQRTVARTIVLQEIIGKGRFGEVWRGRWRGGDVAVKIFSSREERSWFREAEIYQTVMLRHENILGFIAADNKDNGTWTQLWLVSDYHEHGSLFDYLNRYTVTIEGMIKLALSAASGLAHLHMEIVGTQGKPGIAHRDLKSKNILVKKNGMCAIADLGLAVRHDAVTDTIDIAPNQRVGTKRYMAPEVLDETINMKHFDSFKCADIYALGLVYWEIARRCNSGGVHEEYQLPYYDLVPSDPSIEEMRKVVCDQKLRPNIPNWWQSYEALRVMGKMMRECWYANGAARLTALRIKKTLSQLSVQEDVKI
Chain of NEK1 (Q96PY6 whole entry): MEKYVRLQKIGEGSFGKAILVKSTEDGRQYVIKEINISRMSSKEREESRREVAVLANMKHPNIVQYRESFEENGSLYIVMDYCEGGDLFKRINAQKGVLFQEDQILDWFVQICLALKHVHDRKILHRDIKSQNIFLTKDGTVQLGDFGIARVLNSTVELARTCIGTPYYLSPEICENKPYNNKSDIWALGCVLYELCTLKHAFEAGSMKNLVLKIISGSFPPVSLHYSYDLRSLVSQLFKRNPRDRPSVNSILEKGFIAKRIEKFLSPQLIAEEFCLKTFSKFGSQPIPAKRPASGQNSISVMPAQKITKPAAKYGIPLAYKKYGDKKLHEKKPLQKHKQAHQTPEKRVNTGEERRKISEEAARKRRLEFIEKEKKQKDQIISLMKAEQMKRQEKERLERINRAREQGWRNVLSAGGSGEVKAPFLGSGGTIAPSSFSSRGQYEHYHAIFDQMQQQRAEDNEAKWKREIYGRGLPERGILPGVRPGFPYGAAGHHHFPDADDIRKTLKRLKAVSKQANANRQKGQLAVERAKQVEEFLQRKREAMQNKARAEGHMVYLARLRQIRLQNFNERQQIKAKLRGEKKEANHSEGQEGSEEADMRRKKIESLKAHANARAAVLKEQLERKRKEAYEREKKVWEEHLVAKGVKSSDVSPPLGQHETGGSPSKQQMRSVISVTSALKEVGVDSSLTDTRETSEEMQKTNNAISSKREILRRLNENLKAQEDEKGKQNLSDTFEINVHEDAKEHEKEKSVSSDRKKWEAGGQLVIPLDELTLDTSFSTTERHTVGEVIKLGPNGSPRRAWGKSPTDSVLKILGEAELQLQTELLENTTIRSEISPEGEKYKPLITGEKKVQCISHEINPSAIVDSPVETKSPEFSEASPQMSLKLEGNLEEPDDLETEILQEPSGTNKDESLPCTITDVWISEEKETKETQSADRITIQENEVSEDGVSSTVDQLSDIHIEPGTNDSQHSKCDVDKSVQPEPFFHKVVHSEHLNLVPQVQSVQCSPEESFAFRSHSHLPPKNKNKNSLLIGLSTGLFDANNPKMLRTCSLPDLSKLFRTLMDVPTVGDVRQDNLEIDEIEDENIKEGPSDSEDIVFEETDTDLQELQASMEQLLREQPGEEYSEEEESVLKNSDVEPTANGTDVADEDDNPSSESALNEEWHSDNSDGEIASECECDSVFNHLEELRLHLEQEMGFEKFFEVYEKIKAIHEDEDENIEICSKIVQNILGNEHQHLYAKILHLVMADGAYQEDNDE
Chain of LCK (P06239 whole entry): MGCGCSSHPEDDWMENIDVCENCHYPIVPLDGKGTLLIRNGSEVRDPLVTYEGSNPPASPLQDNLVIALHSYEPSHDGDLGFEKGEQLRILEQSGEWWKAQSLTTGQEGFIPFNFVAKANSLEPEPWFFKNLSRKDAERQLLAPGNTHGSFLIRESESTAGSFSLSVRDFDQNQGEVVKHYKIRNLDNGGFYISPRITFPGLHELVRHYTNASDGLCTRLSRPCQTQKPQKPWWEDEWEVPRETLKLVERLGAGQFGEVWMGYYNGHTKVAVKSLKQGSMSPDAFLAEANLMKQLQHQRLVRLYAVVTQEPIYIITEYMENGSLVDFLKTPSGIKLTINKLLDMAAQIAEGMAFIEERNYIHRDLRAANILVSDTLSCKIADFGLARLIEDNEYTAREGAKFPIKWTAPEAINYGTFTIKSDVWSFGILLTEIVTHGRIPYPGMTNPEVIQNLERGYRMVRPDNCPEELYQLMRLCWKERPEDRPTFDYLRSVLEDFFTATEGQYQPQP
T2 sequence (Q00535 whole entry): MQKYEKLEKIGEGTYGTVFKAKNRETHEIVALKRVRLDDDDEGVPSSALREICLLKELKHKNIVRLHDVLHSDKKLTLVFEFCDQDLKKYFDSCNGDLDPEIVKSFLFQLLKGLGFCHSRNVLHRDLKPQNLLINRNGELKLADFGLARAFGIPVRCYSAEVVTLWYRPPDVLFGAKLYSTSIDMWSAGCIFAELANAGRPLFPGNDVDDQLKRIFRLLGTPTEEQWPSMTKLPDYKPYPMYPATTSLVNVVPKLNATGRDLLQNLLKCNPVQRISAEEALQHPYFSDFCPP
T2 sequence (Q15078 whole entry partner): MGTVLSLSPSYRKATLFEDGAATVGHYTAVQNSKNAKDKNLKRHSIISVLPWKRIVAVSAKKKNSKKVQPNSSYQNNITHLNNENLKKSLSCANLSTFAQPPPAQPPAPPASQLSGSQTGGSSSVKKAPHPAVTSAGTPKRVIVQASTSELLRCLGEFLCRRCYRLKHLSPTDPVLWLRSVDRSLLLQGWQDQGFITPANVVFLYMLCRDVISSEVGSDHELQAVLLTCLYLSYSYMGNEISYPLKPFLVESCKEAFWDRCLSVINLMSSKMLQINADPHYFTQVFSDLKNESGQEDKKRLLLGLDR

remaining activity at 0.3 µM (FGFR3; [1]): 107%
remaining activity at 0.3 µM (FGFR3; [2]): 105%
remaining activity at 0.3 µM (LCK; [1]): 101%
remaining activity at 0.3 µM (LCK; [2]): 99.4%
remaining activity at 0.3 µM (NEK1; [1]): 105%
remaining activity at 0.3 µM (NEK1; [2]): 104%
remaining activity at 0.3 µM (TXK; [1]): 114%
remaining activity at 0.3 µM (TXK; [2]): 112%
remaining activity at 0.3 µM (ALK4/ACVR1B; [1]): 86.9%
remaining activity at 0.3 µM (ALK4/ACVR1B; [2]): 85%
remaining activity at 0.3 µM (CAMK1d; [1]): 75.7%
remaining activity at 0.3 µM (CAMK1d; [2]): 73.7%
remaining activity at 0.3 µM (TRKA; [1]): 93.3%
remaining activity at 0.3 µM (TRKA; [2]): 82.4%
remaining activity at 0.3 µM (CAMK2a; [1]): 8.85%
remaining activity at 0.3 µM (CAMK2a; [2]): 8.25%
remaining activity at 0.3 µM (CDK5/p35; [1]): 99.5%
remaining activity at 0.3 µM (CDK5/p35; [2]): 99.1%
remaining activity at 0.3 µM (DDR1; [1]): 74.4%
remaining activity at 0.3 µM (DDR1; [2]): 74.1%
remaining activity at 0.3 µM (DCAMKL2; [1]): 93.7%
remaining activity at 0.3 µM (DCAMKL2; [2]): 89.7%
remaining activity at 0.3 µM (TLK1; [1]): 103%
remaining activity at 0.3 µM (TLK1; [2]): 101%
remaining activity at 0.3 µM (CDK6/cyclin D3; [1]): 103%
remaining activity at 0.3 µM (CDK6/cyclin D3; [2]): 101%
remaining activity at 0.3 µM (Aurora A; [1]): 101%
remaining activity at 0.3 µM (Aurora A; [2]): 99.6%
remaining activity at 0.3 µM (TRKB; [1]): 96.1%
remaining activity at 0.3 µM (TRKB; [2]): 95.9%
remaining activity at 0.3 µM (MINK/MINK1; [1]): 95.6%
remaining activity at 0.3 µM (MINK/MINK1; [2]): 89.2%
remaining activity at 0.3 µM (DYRK3; [1]): 126%
remaining activity at 0.3 µM (DYRK3; [2]): 124%
Structure (SMILES): COc1cc(N2CCN(C)CC2)c(C)cc1Nc1ncc(Br)c(Nc2cccnc2N(C)C)n1 [TP-5801]
